# Assay results reported in patent US20250263436A1, “BROAD-SPECTRUM ANTIVIRAL DRUG FOR ENTEROVIRUS, AND APPLICATION” (WUHAN INSTITUTE OF VIROLOGY, CHINESE ACADEMY OF SCIENCES, priority 2020, published 2025).
# Values joined by “and” are separate entries in the source; they are usually repeats but may differ in a detail not shown here. Equal entries are not always repeated.
# Legend:
# [1] = tested on: EV71; test: Inhibition of EV71 in Vero cells (viral RNA, qRT-PCR); type: cell-based, enterovirus 71 (EV71); settings: anti-EV71 in Vero cells
# Method in brief: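 Vero E6 cells in DMEM with 2% serum were infected with EV71 (5 μL of 1×10^6 PFU/mL per well); polypeptides at 0.3125–5 μM added 1 h later. At 24 h post-infection, total RNA extracted and viral RNA quantified by one-step qRT-PCR against untreated control.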
# [2] = tested on: EV71; test: Inhibition of EV71 in huh7 cells (viral RNA, qRT-PCR); type: cell-based, enterovirus 71 (EV71); settings: anti-EV71 in huh7 cells
# Description: (§1) (1) Different cells were plated in a 24-well plate.
# (§2) (2) When the cells grew to a confluence of 70%-80%, the DMEM medium containing 10% serum was replaced with a DMEM medium containing 2% serum (the DMEM medium containing 2% serum was added in each well at an amount of 0.5 mL), and 5 μL of EV71 virus of 1×10^6 PFU/mL was added to each well.
# (§3) (3) After 1 h, different polypeptides (RQ or control TAT) with final concentrations of 0.3125 μM, 0.625 μM, 1.25 μM, 2.5 μM, and 5 μM were added respectively. The group without polypeptide added was used as a control.
# (§4) (4) The samples were collected 24 h after the infection of EV71 virus, and RNA was extracted with the total RNA extraction kit.
# (§5) (5) The supernatant was discarded, then 350 μL of TRK lysate was added to each well, and the plate was put on a shaker for 5 min.
# (§6) (6) 350 μL of 70% ethanol (DEPC) was added to each well, and then the plate was put on a shaker for 5 min.
# (§7) (7) The solution in each well was transferred to a RNA extraction column for 1 min of centrifugation at 12000 g.
# (§8) (8) The solution obtained in the recovery tube was reloaded on the column again for 1 min of centrifugation at 12000 g.
# (§9) (9) RNA washing buffer 1 was added in the column for 30 s of centrifugation at 12000 g. […]
# (§10) (14) 2 μL of RNA sample was subjected to a fluorescence quantitative experiment using the one step qRT-PCR kit.
# [3] = tested on: EV71; test: Inhibition of EV71 in 293T cells (viral RNA, qRT-PCR); type: cell-based, enterovirus 71 (EV71); settings: anti-EV71 in 293T cells
# Description: as §1, §2, §3, §4, §5, §6, §7, §8, §9, §10
# [4] = Toxicity assay in RD cells (CCK-8); type: cell-based; settings: human, RD cells, 24 h
# Description: (§11) (1) Different cells were plated in a 96-well plate at 100 μL per well.
# (§12) (2) When the cells grew to a confluence of 70%-80%, the DMEM medium containing 10% serum was replaced with a DMEM medium containing 2% serum, and a certain concentration gradient of polypeptide RQ was added, so that the final concentrations of the polypeptide in the wells were 0.073242 μM, 0.146484 μM, 0.292969 μM, 0.585938 μM, 1.171875 μM, 2.34375 μM, 4.6875 μM, 9.375 μM, 18.75 μM, 37.5 μM, 75 μM, 150 μM, and 300 μM, respectively.
# (§13) (3) The samples were collected 24 h after the addition of the polypeptide, and then 10 μL of live cell detection reagent CCK-8 was added to each well and mixed well.
# (§14) (4) The plate was placed at 37° C. for 2 h.
# (§15) (5) The absorbance value at OD450 was detected by a microplate reader.
# (§16) (1) RD cells were plated in a 96-well plate at 100 μL per well.
# (§17) (2) When the cells grew to a confluence of 70%-80%, the DMEM medium containing 10% serum was replaced with a DMEM medium containing 2% serum, and B-RQ was added so that the final concentrations in the wells were 0.46 μM, 2.34 μM, 4.68 μM, 9.37 μM, 18.75 μM, 37.5 μM, 75 μM, and 150 μM.
# [5] = tested on: RD cells; test: Toxicity assay in RD cells (CCK-8); type: cell-based; settings: 24 h
# Description: as §11, §12, §13, §14, §15, §16, §17
# [6] = Toxicity assay in 293T cells (CCK-8); type: cell-based; settings: human, 293T cells, read-out: Viability of Huh7 cell (%)
# Description: as §11, §12, §13, §14, §15
# [7] = tested on: Echo 11; test: Inhibition of Echo 11 in RD cells (viral RNA, qRT-PCR); type: cell-based; settings: inhibiting Echo 11 in RD cells
# Description: (1) RD cells were plated in a 24-well plate.
# (2) When the cells grew to a confluence of 70%-80%, the DMEM medium containing 10% serum was replaced with a DMEM medium containing 2% serum (the DMEM medium containing 2% serum was added in each well at an amount of 0.5 mL), and 5 μL of Echo 11 virus of 1×10^6 PFU/mL was added to each well.
# (3) After 1 h, the polypeptides with final concentrations of 0.3125 μM, 0.625 μM, 1.25 μM, 2.5 μM, and 5 μM were added respectively. The group without polypeptide added was used as a control.
# (4) The samples were collected 24 h after the infection of Echo 11 virus, and RNA was extracted with the total RNA extraction kit.
# as §5, §6, §7, §8, §9
# (14) 2 μL of RNA sample was subjected to a fluorescence quantitative experiment using the one step qRT-PCR kit. […]
smiles,measurement,setting,value
CC[C@H](C)[C@H](NC(=O)[C@H](C)NC(=O)[C@H](CO)NC(=O)[C@H](CCCNC(=N)N)NC(=O)[C@H](CC(N)=O)NC(=O)[C@H](CC(N)=O)NC(=O)[C@H](Cc1ccc(O)cc1)NC(=O)[C@H](CCC(=O)O)NC(=O)[C@H](CCCNC(=N)N)NC(=O)CNC(=O)[C@H](CO)NC(=O)CNC(=O)[C@H](CCCNC(=N)N)NC(=O)[C@H](CCCNC(=N)N)NC(=O)[C@H](CCCNC(=N)N)NC(=O)[C@H](CCC(N)=O)NC(=O)[C@H](CCCNC(=N)N)NC(=O)[C@H](CCCNC(=N)N)NC(=O)[C@H](CCCCN)NC(=O)[C@H](CCCCN)NC(=O)[C@H](CCCNC(=N)N)NC(=O)CNC(=O)[C@@H](N)Cc1ccc(O)cc1)C(=O)NCC(=O)N[C@@H](CC(N)=O)C(=O)N[C@H](C(=O)N[C@H](C(=O)N[C@@H](CCC(=O)O)C(=O)N[C@@H](C)C(=O)N[C@@H](CC(C)C)C(=O)N[C@@H](Cc1ccccc1)C(=O)N[C@@H](CCC(N)=O)C(=O)O)[C@@H](C)CC)[C@@H](C)O [RQ],IC50,[1],660 nM
same,IC50,[2],410 nM
same,IC50,[3],3000 nM
same,"viability at 24 h, 0.073242 µM","[4]; RQ 0.073242 μM, read-out: Viability of RD cell (%)",99.8%
same,"viability at 24 h, 0.146484 µM","[4]; RQ 0.146484 μM, read-out: Viability of RD cell (%)",99.2%
same,"viability at 24 h, 0.292969 µM","[4]; RQ 0.292969 μM, read-out: Viability of RD cell (%)",101%
same,"viability at 24 h, 0.585938 µM","[4]; RQ 0.585938 μM, read-out: Viability of RD cell (%)",98.9%
same,"viability at 24 h, 1.17188 µM","[4]; RQ 1.171875 μM, read-out: Viability of RD cell (%)",99.6%
same,"viability at 24 h, 2.34375 µM","[4]; RQ 2.34375 μM, read-out: Viability of RD cell (%)",98.8%
same,"viability at 24 h, 4.6875 µM","[4]; RQ 4.6875 μM, read-out: Viability of RD cell (%)",98.3%
same,"viability at 24 h, 9.375 µM","[4]; RQ 9.375 μM, read-out: Viability of RD cell (%)",98.4%
same,"viability at 24 h, 18.75 µM","[4]; RQ 18.75 μM, read-out: Viability of RD cell (%)",101%
same,"viability at 24 h, 37.5 µM","[4]; RQ 37.5 μM, read-out: Viability of RD cell (%)",101%
same,"viability at 24 h, 75 µM","[4]; RQ 75 μM, read-out: Viability of RD cell (%)",102%
same,"viability at 24 h, 150 µM","[4]; RQ 150 μM, read-out: Viability of RD cell (%)",8.73%
same,CC50 at 24 h,[4]; CCK-8,> 150000 nM
same,Viability of RD cell (%),[5]; RQ 0.073242 μM,100.3321% and 99.8893%
same,Viability of RD cell (%),[5]; RQ 0.146484 μM,102.3247% and 99.94%
same,Viability of RD cell (%),[5]; RQ 0.292969 μM,100.2214% and 99.17%
same,Viability of RD cell (%),[5]; RQ 0.585938 μM,103.5978% and 102.7122%
same,Viability of RD cell (%),[5]; RQ 1.171875 μM,99% and 99.23%
same,Viability of RD cell (%),[5]; RQ 2.34375 μM,98.51%
same,Viability of RD cell (%),[5]; RQ 4.6875 μM,99.45% and 100.8856%
same,Viability of RD cell (%),[5]; RQ 9.375 μM,100.7196% and 102.6568%
same,Viability of RD cell (%),[5]; RQ 18.75 μM,103.4317% and 102.4354%
same,Viability of RD cell (%),[5]; RQ 37.5 μM,103.9852% and 103.5424%
same,Viability of RD cell (%),[5]; RQ 75 μM,103.5978% and 102.9889%
same,Viability of RD cell (%),[5]; RQ 150 μM,8.782% and 8.007%
same,"Viability of 293T cells at 24 h, 0.073242 µM","[6]; Table 15 (third cell line of Example 9), RQ 0.073242 μM",98.4%
same,"Viability of 293T cells at 24 h, 0.146484 µM","[6]; Table 15, RQ 0.146484 μM",101%
same,"Viability of 293T cells at 24 h, 0.292969 µM","[6]; Table 15, RQ 0.292969 μM",101%
same,"Viability of 293T cells at 24 h, 0.585938 µM","[6]; Table 15, RQ 0.585938 μM",100%
same,"Viability of 293T cells at 24 h, 1.17188 µM","[6]; Table 15, RQ 1.171875 μM",99.7%
same,"Viability of 293T cells at 24 h, 2.34375 µM","[6]; Table 15, RQ 2.34375 μM",99.1%
same,"Viability of 293T cells at 24 h, 4.6875 µM","[6]; Table 15, RQ 4.6875 μM",98.6%
same,"Viability of 293T cells at 24 h, 9.375 µM","[6]; Table 15, RQ 9.375 μM",99.7%
same,"Viability of 293T cells at 24 h, 18.75 µM","[6]; Table 15, RQ 18.75 μM",100%
same,"Viability of 293T cells at 24 h, 37.5 µM","[6]; Table 15, RQ 37.5 μM",102%
same,"Viability of 293T cells at 24 h, 75 µM","[6]; Table 15, RQ 75 μM",102%
same,"Viability of 293T cells at 24 h, 150 µM","[6]; Table 15, RQ 150 μM",66.6%
same,IC50,[7],370 nM
